Measured values reported in patent publication US9931338B2, “Syk inhibitors” (Gilead Sciences, Inc., priority 2014, dated 2018).
Structures can show the parent of a compound that is named as a salt.

test system: not given; experiment: not given; settings: cited from earlier work

Compound | solubility in methanol
CC[C@]1(O)C[C@H]2CN(CCc3c([nH]c4ccccc34)[C@@](C(=O)OC)(c3cc4c(cc3OC)N(C=O)[C@H]3[C@@](O)(C(=O)OC)[C@H](OC(C)=O)[C@]5(CC)C=CCN6CC[C@]43[C@@H]65)C2)C1 [Vincristine Sulfate, vincristine sulfate] | soluble

test system: human hepatocytes; experiment: Human Hepatocyte Stability Assay; assay type: in vitro ADME; settings: comparison table, Example 12; head prints '(units)', method states L/hr/kg
Method: The human […] stability of the compounds as predicted hepatocyte clearance in L/hr/kg was assessed. Compounds to be tested were diluted to 200 μM (4 μl of 10 mM DMSO stock into 196 μl ACN:H2O (50:50). Propranolol was used as a positive control, and buffer only without hepatocytes as 0% control. These were further diluted 4 μl with 891 μl KHB buffer (InVitroGRO catalog number Z99074) to provide 2× dosing solution. To each well of 24 well plate, 250 μl of the 2× dosing solution was added to each well with 250 μl of hepatocytes cells (1×10^6 viable cells/ml per well) or KHB for control samples to achieve a final compound concentration of 1 μM during incubation. The final solvent concentration was 0.01% DMSO and 0.25% ACN. The culture plate was placed on a rocker and incubated at 37° C., 5% CO2. Samples were collected at time 0, 1, 3, and 6 hours. The loss of parent compound was determined using LC-MS methods against a standard curve.

Compound | Hheps CL [mL/min/kg]
Cc1ncc(-c2cn3ccnc3c(Nc3ccc(N4CCN(C5COC5)CC4)cc3)n2)nc1N [Ex.-1, 6-(6-amino-5-methylpyrazin-2-yl)-N-(4-(4-(oxetan-3-yl)piperazin-1-yl)phenyl)imidazo[1,2-a]pyrazin-8-amine] | 2
Cc1ncc(-c2cn3ccnc3c(Nc3ccc(N4CCN(C5COC5)CC4)c(OCCO)c3)n2)nc1N [Ex.-7, 2-(5-((6-(6-amino-5-methylpyrazin-2-yl)imidazo[1,2-a]pyrazin-8-yl)amino)-2-(4-(oxetan-3-yl)piperazin-1-yl)phenoxy)ethanol] | 0.83
COc1ccc(Nc2nc(-c3ccc(N)nc3)cn3ccnc23)cc1OC [6-(6-aminopyridin-3-yl)-N-(3,4-dimethoxyphenyl)imidazo[1,2-a]pyrazin-8-amine, reference compound] | 15
Cc1c(-c2cncc(N)n2)nc(Nc2ccc(N3CCN(C4COC4)CC3)cc2)c2nccn12 [Ex.-4, 6-(6-aminopyrazin-2-yl)-5-methyl-N-(4-(4-(oxetan-3-yl)piperazin-1-yl)phenyl)imidazo[1,2-a]pyrazin-8-amine] | 1.3
Cc1ncc(-c2cn3ccnc3c(Nc3ccc(N4CCOCC4)cc3)n2)cc1N [6-(5-amino-6-methylpyridin-3-yl)-N-(4-morpholinophenyl)imidazo[1,2-a]pyrazin-8-amine, reference compound] | 13.3
Nc1cncc(-c2cn3ccnc3c(Nc3ccc(N4CCN(C5COC5)CC4)cc3)n2)n1 [Ex.-2, 6-(6-aminopyrazin-2-yl)-N-(4-(4-(oxetan-3-yl)piperazin-1-yl)phenyl)imidazo[1,2-a]pyrazin-8-amine] | 0.917
Nc1cncc(-c2cn3ccnc3c(Nc3ccc(N4CCN(CC(CO)CO)CC4)cc3)n2)n1 [Ex.-6, 2-((4-(4-((6-(6-aminopyrazin-2-yl)imidazo[1,2-a]pyrazin-8-yl)amino)phenyl)piperazin-1-yl)methyl)propane-1,3-diol] | 1.3
Nc1cncc(-c2cn3ccnc3c(Nc3ccc(N4CCO[C@@H](CO)C4)cc3)n2)n1 [Ex.-3, (R)-(4-(4-((6-(6-aminopyrazin-2-yl)imidazo[1,2-a]pyrazin-8-yl)amino)phenyl)morpholin-2-yl)methanol] | 1.5
Nc1cncc(-c2cn3ccnc3c(Nc3ccc(N4CCOCC4)cc3)n2)c1 [6-(5-aminopyridin-3-yl)-N-(4-morpholinophenyl)imidazo[1,2-a]pyrazin-8-amine, reference compound] | 11.3
COc1ccc(Nc2nc(-c3cccc(N)c3)cn3ccnc23)cc1OC [6-(3-aminophenyl)-N-(3,4-dimethoxyphenyl)imidazo[1,2-a]pyrazin-8-amine, reference compound] | 4
Nc1cncc(-c2cn3ccnc3c(Nc3ccc(N4CCN(C5COC5)CC4)c(OCCO)c3)n2)n1 [Ex.-5, 2-(5-((6-(6-aminopyrazin-2-yl)imidazo[1,2-a]pyrazin-8-yl)amino)-2-(4-(oxetan-3-yl)piperazin-1-yl)phenoxy)ethanol] | 1.2
